From ChEMBL document CHEMBL5143762, “Novel Coronavirus Main Protease Di- and Tripeptide Inhibitors for Treating COVID-19” (ACS Med Chem Lett, 2022)

These compounds were tested against Replicase polyprotein 1ab (Severe acute respiratory syndrome coronavirus 2, UniProt P0DTD1) (assay: Inhibition of recombinant SARS-CoV-2 Main protease using TAMRA-SITSAVLQSGFRKMK-DABCYL-OH fluorogenic peptide as substrate preincubated or 30 mins followed by substrate addition by FRET assay).
Work on `CC(C)C(=O)N[C@H](C(=O)N1C[C@H]2[C@@H]([C@H]1C(=O)N[C@H](C#N)C[C@@H]1CCNC1=O)C2(C)C)C(C)(C)C` yielded an IC50 of less than 100 nM. `CC1(C)[C@@H]2[C@@H](C(=O)N[C@H](C#N)C[C@@H]3CCNC3=O)N(C(=O)c3cc4c(OC(F)F)cccc4[nH]3)C[C@@H]21` showed an IC50 of 100 nM. With `COc1cccc2[nH]c(C(=O)N3C[C@@H]4CCC[C@@H]4[C@H]3C(=O)N[C@@H](C[C@@H]3CCNC3=O)C(=O)C(=O)NC3CCCCC3)cc12` the IC50 was less than 100 nM. With `COc1cccc2[nH]c(C(=O)N3C[C@@H]4CCC[C@@H]4[C@H]3C(=O)N[C@@H](C[C@@H]3CCNC3=O)C(=O)COC(=O)c3c(Cl)cccc3Cl)cc12` the IC50 was less than 100 nM. Compound `COc1cccc2[nH]c(C(=O)N3C[C@@H]4CCC[C@@H]4[C@H]3C(=O)N[C@@H](C[C@@H]3CCNC3=O)C(=O)CCl)cc12` has an IC50 of 100 nM. Work on `COc1cccc2[nH]c(C(=O)N3C[C@@H]4CCC[C@@H]4[C@H]3C(=O)N[C@H](C=O)C[C@@H]3CCNC3=O)cc12` yielded an IC50 of less than 100 nM. `CC(C)(C)C(=O)N[C@H](C(=O)N1C[C@H]2[C@@H]([C@H]1C(=O)N[C@H](C#N)C[C@@H]1CCNC1=O)C2(C)C)C(C)(C)C` was tested, and the IC50 was less than 100 nM. For `CC(C)(C)[C@H](NC(=O)C1CCCCC1)C(=O)N1C[C@H]2[C@@H]([C@H]1C(=O)N[C@H](C#N)C[C@@H]1CCNC1=O)C2(C)C`, the IC50 was less than 100 nM. `CC(C)(C)[C@H](NC(=O)Cc1ccccc1)C(=O)N1C[C@H]2[C@@H]([C@H]1C(=O)N[C@H](C#N)C[C@@H]1CCNC1=O)C2(C)C` gave an IC50 of less than 100 nM. Work on `N#C[C@H](C[C@@H]1CCNC1=O)NC(=O)[C@@H]1CCCN1C(=O)c1cc2c(OC(F)F)cccc2[nH]1` yielded an IC50 greater than 1000 nM. Work on `COc1cccc2[nH]c(C(=O)N3C[C@@H]4CCC[C@@H]4[C@H]3C(=O)N[C@@H](C[C@@H]3CCNC3=O)C(=O)CO)cc12` yielded an IC50 of 100 nM. Work on `CC(=O)N[C@H](C(=O)N1C[C@H]2[C@@H]([C@H]1C(=O)N[C@H](C#N)C[C@@H]1CCNC1=O)C2(C)C)C(C)(C)C` yielded an IC50 of less than 100 nM. `CCC(=O)N[C@H](C(=O)N1C[C@H]2[C@@H]([C@H]1C(=O)N[C@H](C#N)C[C@@H]1CCNC1=O)C2(C)C)C(C)(C)C` showed an IC50 of less than 100 nM.
